pIC50: −log10 of the molar value.
Key:
HeLa cells = experiment: Assay 1 cell proliferation measurement (CTG, 72 h), HeLa; type: cell-based, human; conditions: Homo sapiens, HeLa; Assay 1, 72 h, Cell Titer Glo; read-out: HeLa IC50 [nM] (Cervical cancer)
Procedure, shortened: (§1)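 CTG luminescence readout after 72 h compound exposure at 37 °C; 10-point 2.5-fold dilutions from 100 nM max final; DMSO 0.3% vehicle. IC50 from 4-parameter fit, normalised to 0 h plate (max inhibition) and DMSO (min inhibition).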

human full length PDE3B = human full length PDE3B (Homo sapiens (Human), UniProt Q13370); experiment: Assay 5 PDE3B enzyme inhibition (3H-cAMP SPA); type: biochemical; conditions: Sf9 cell extract
Sequence of human full length PDE3B (Q13370 whole entry): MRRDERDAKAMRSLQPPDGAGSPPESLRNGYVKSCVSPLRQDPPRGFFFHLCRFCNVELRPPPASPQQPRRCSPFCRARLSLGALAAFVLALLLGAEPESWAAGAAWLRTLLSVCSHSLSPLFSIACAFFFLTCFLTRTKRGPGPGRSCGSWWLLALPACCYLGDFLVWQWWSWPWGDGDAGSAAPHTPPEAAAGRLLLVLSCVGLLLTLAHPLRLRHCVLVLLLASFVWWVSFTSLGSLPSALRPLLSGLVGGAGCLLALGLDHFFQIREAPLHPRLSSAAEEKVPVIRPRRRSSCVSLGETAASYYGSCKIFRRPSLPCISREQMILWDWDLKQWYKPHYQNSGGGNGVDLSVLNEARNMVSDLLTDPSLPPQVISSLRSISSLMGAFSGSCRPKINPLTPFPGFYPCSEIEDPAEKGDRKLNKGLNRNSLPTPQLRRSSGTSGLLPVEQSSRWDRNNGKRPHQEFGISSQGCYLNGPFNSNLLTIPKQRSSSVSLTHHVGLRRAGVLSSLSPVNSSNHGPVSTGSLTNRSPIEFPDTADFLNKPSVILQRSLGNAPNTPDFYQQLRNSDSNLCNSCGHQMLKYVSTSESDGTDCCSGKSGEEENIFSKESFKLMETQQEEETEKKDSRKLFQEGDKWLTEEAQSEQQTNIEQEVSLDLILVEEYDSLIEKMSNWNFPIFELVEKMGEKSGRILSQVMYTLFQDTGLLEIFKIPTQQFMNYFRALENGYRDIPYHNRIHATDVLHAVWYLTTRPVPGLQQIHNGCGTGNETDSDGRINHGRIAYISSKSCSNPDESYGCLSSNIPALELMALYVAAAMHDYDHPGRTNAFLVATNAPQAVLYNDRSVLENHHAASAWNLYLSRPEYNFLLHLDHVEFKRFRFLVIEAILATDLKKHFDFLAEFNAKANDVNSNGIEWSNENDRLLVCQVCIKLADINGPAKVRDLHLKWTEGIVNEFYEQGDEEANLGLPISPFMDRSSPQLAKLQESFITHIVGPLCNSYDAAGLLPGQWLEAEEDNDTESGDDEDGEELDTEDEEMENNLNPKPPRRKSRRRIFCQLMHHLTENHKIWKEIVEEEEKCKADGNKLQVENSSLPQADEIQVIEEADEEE
Procedure, shortened: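 Sf9 cell extract expressing human full-length PDE3B, diluted for linear kinetics (<70% substrate use), in 50 mM Tris/HCl pH 7.5, 8.3 mM MgCl2, 1.7 mM EDTA. [8-3H]cAMP substrate, 60 min at room temperature; stopped with yttrium SPA beads, scintillation counting. IC50 from sigmoidal activity vs log concentration curves.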

human full length PDE3A = human full length PDE3A (Homo sapiens (Human), UniProt Q14432); experiment: Assay 4 PDE3A enzyme inhibition (3H-cAMP SPA); type: biochemical; conditions: Sf9 cell extract
Sequence of human full length PDE3A (Q14432 whole entry): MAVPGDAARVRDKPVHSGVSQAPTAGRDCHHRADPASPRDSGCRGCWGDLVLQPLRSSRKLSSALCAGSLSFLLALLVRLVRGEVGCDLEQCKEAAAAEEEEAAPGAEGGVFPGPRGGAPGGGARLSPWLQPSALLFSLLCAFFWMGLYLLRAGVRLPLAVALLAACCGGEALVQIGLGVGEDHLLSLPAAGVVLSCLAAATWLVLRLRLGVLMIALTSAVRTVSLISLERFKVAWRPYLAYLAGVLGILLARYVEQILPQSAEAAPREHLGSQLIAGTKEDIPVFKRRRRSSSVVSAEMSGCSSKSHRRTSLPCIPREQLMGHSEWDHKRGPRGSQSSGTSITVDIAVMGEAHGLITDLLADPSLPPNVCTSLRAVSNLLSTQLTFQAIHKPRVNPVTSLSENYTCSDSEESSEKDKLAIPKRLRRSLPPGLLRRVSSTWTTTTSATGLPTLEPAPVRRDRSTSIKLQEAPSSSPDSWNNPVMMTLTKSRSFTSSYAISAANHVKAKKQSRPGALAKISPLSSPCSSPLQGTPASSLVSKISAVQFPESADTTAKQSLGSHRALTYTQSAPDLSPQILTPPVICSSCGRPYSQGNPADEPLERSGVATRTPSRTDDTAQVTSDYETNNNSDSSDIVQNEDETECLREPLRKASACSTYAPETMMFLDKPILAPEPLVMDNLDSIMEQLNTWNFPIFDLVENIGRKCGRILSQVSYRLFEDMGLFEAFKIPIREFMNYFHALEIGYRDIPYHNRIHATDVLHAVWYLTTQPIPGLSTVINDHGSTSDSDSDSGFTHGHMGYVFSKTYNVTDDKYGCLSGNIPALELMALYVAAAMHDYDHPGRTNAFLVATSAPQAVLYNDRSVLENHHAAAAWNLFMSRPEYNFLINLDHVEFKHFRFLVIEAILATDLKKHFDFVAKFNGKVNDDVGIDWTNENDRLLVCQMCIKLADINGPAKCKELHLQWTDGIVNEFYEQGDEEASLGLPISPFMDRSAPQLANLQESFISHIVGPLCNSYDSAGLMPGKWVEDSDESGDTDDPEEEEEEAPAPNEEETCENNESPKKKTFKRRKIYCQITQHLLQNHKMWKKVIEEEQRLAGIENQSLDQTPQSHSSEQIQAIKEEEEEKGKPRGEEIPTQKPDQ
Procedure, shortened: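 In this SPA format, the 60-min room-temperature reaction used 0.025 μCi [8-3H]cAMP and diluted full-length PDE3A from Sf9 cells. Percentage activity was plotted against log compound concentration to derive IC50.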

SK-MEL-3 cells = experiment: Assay 1 cell proliferation measurement (CTG, 72 h), SK-MEL-3; type: cell-based, human; conditions: Homo sapiens, SK-MEL3; Assay 1, 72 h, Cell Titer Glo; read-out: SK-MEL-3 IC50 [nM] (melanoma)
Procedure, shortened: as §1

[1] = Assay 6 in vitro metabolic stability in cryopreserved human hepatocytes (CL, Fmax); type: in vitro ADME; conditions: 1 μM test compound; for Clblood: hepatic in vivo blood clearance calculated (well-stirred) from half-life in cryopreserved human hepatocytes; for Fmax: maximal oral bioavailability calculated from half-life in cryopreserved human hepatocytes
Experimental: Assay 6 Method for Human Cryo Hepatocytes:
Investigation of In Vitro Metabolic Stability in Cryopreserved Human Hepatocytes (Including Calculation of Hepatic In Vivo Blood Clearance (CL) and Maximal Oral Bioavailability (Fmax))
Cryopreserved Hepatocytes (e.g. purchased from Celsis InVitroTechnologies) were briefly thawed, washed with 45 mL pre-warmed in in vitro GRO HT medium and centrifuged for 5 min at 50×g. The cell pellet was resuspended in 5 ml of Krebs-Henseleit […] (KHB). Cell viability was determined by trypan blue exclusion.
For the metabolic stability assay liver cells were distributed in WME containing 5% FCS to glass vials at a density of 1.0×10^6 vital cells/ml. The test compound was added to a final concentration of 1 μM. During incubation, the hepatocyte suspensions were continuously shaken at 580 rpm and aliquots were taken at 2, 8, 16, 30, 45 and 90 min, to which equal volumes of cold methanol were immediately added. Samples were frozen at −20° C. over night, after subsequently centrifuged for 15 minutes at 3000 rpm and the supernatant was analyzed with an Agilent 1290 HPLC-system with LCMS/MS detection.
The half-life of a test compound was determined from the concentration-time plot. From the half-life the intrinsic clearances were calculated. Together with the additional parameters liver blood flow, amount of liver cells in vivo and in vitro. The hepatic in vivo blood clearance (CL) and the maximal oral bioavailability (Fmax) was calculated.

| SMILES | IC50 (HeLa cells) [nM] | pIC50 (human full length PDE3B) | pIC50 (human full length PDE3A) | IC50 (SK-MEL-3 cells) [nM] | Clblood [1] [L/h/kg] | Fmax [1] [%] |
| --- | --- | --- | --- | --- | --- | --- |
| Cc1cc(F)ccc1-c1ccc(C2=NNC(=O)OC2)cc1C [Example 9, 5-(4′-Fluoro-2,2′-dimethylbiphenyl-4-yl)-3,6-dihydro-2H-1,3,4-oxadiazin-2-one] | 15 | 6.62 | 6.36 | 33 | 0.19 | 85 |
| O=C1NN=C(c2ccc(-c3ccc(Cl)cc3)c(OC(F)(F)F)c2)CO1 [Example 71, 5-[4′-Chloro-2-(trifluoromethoxy)biphenyl-4-yl]-3,6-dihydro-2H-1,3,4-oxadiazin-2-one] | 20 | < 6.00 | < 6.00 | 38 | 0.19 | 86 |
| O=C1NN=C(c2ccc(-c3ccc(F)cc3F)c(F)c2)CO1 [Example 111, 5-(2,2′,4′-Trifluoro[1,1′-biphenyl]-4-yl)-3,6-dihydro-2H-1,3,4-oxadiazin-2-one] | 2 | 7.09 | 7.14 | 4 | 0.32 | 76 |
| COC/C=C/c1ccc(C2=NNC(=O)OC2)cc1C(F)(F)F [Example 140, 5-{4-[3-Methoxyprop-1-en-1-yl]-3-(trifluoromethyl)phenyl}-3,6-dihydro-2H-1,3,4-oxadiazin-2-one] | 1 | 7.10 | 7.24 | 1 | 0.51 | 61 |
| Cc1cc(F)ccc1-c1ccc(C2=NNC(=O)OC2)cc1F [Example 162, 5-(2,4′-Difluoro-2′-methyl[1,1′-biphenyl]-4-yl)-3,6-dihydro-2H-1,3,4-oxadiazin-2-one] | 4 | 6.92 | 6.68 | 7 | 0.62 | 53 |
| O=C1NN=C(c2ccc(-c3cnn(C(F)F)c3)c(C(F)F)c2)CO1 [Example 195, 5-{3-(Difluoromethyl)-4-[1-(difluoromethyl)-1H-pyrazol-4-yl]phenyl}-3,6-dihydro-2H-1,3,4-oxadiazin-2-one] | 2 | 7.11 | 7.24 | 5 | <0.01 | 100 |
| O=C1NN=C(c2ccc(-c3ccc(F)cc3)c(C(F)F)c2)CO1 [Example 198, 5-[2-(Difluoromethyl)-4′-fluoro[1,1′-biphenyl]-4-yl]-3,6-dihydro-2H-1,3,4-oxadiazin-2-one] | 6 | 6.89 | 6.77 | 14 | 0.44 | 67 |
| O=C1NN=C(c2ccc(-c3ccc(Cl)cc3)c(C(F)F)c2)CO1 [Example 199, 5-[4′-Chloro-2-(difluoromethyl)[1,1′-biphenyl]-4-yl]-3,6-dihydro-2H-1,3,4-oxadiazin-2-one] | 2 | 6.70 | 6.68 | 5 | 0.94 | 29 |
| CC1(O)CN(c2ccc(C3=NNC(=O)OC3)cc2C(F)(F)F)C1 [Example 203, 5-[4-(3-Hydroxy-3-methylazetidin-1-yl)-3-(trifluoromethyl)phenyl]-3,6-dihydro-2H-1,3,4-oxadiazin-2-one] | 1 | 7.06 | 7.43 | 2 | 0.61 | 54 |
| CCC(CNc1ccc(C2=NNC(=O)OC2)cc1C(F)(F)F)OC (centres unmarked) [Example 281, 5-{4-[(2-methoxybutyl)amino]-3-(trifluoromethyl)phenyl}-3,6-dihydro-2H-1,3,4-oxadiazin-2-one] | 12 |  |  |  | 0.85 | 35 |
| Cc1nc2cc(-c3ccc(C4=NNC(=O)OC4)cc3C(F)(F)F)ccc2s1 [Example 325, 5-[4-(2-methyl-1,3-benzothiazol-5-yl)-3-(trifluoromethyl)phenyl]-3,6-dihydro-2H-1,3,4-oxadiazin-2-one] | > 100 | 6.82 | 7.25 | > 100 |  |  |
| Cc1nc2cc(-c3ccc(C4=NNC(=O)OC4)cc3C(F)(F)F)ccc2[nH]1 [Example 326, 5-[4-(2-methyl-1H-benzimidazol-5-yl)-3-(trifluoromethyl)phenyl]-3,6-dihydro-2H-1,3,4-oxadiazin-2-one] | > 100 | 7.52 | 7.77 | > 100 |  |  |
| Cc1n[nH]c2cc(-c3ccc(C4=NNC(=O)OC4)cc3C(F)(F)F)ccc12 [Example 327, 5-[4-(3-methyl-1H-indazol-6-yl)-3-(trifluoromethyl)phenyl]-3,6-dihydro-2H-1,3,4-oxadiazin-2-one] | > 100 | 7.80 | 7.96 | > 100 |  |  |
| O=C1NN=C(c2ccc(C3=CCNCC3)c(C(F)(F)F)c2)CO1 [Example 328, 5-[4-(1,2,3,6-tetrahydropyridin-4-yl)-3-(trifluoromethyl)phenyl]-3,6-dihydro-2H-1,3,4-oxadiazin-2-one] | 47 | 7.04 | 7.13 | > 100 |  |  |
| O=C1NN=C(c2ccc(C3=CCOC3)c(C(F)F)c2)CO1 [Example 329, 5-[3-(difluoromethyl)-4-(2,5-dihydrofuran-3-yl)phenyl]-3,6-dihydro-2H-1,3,4-oxadiazin-2-one] | 41 | 7.03 | 7.00 | 64 |  |  |
| O=C1NN=C(c2ccc(Cl)c(C(F)(F)F)c2)CO1 [Intermediate 64, 5-[4-Chloro-3-(trifluoromethyl)phenyl]-3,6-dihydro-2H-1,3,4-oxadiazin-2-one] | 29 | 6.31 | 6.21 | 53 |  |  |
| O=C1NN=C(c2ccc(F)c(C(F)(F)F)c2)CO1 [Intermediate 66, 5-[4-Fluoro-3-(trifluoromethyl)phenyl]-3,6-dihydro-2H-1,3,4-oxadiazin-2-one] | 56 | < 6.00 | < 6.00 | > 100 |  |  |
| CC(C)(C)OC(=O)NCCNc1ccc(C2=NNC(=O)OC2)cc1C(F)(F)F [Intermediate 67, tert-Butyl {2-[4-(2-oxo-3,6-dihydro-2H-1,3,4-oxadiazin-5-yl)-2-(trifluoromethyl)anilino]ethyl} carbamate] | > 100 | 8.15 | 8.22 | > 100 |  |  |
| O=C1NN=C(c2ccc(Cl)c(OC(F)(F)F)c2)CO1 [Intermediate 73, 5-[4-Chloro-3-(trifluoromethoxy)phenyl]-3,6-dihydro-2H-1,3,4-oxadiazin-2-one] | 58 | < 6.00 | 6.14 | > 100 |  |  |
| C[C@@H]1OC(=O)NN=C1c1ccc(Cl)c(C(F)(F)F)c1 [Intermediate 74, (6S)-5-[4-chloro-3-(trifluoromethyl)phenyl]-6-methyl-3,6-dihydro-2H-1,3,4-oxadiazin-2-one] | 6 | 7.00 | 7.47 | 11 |  |  |
| C[C@@H]1OC(=O)NN=C1c1ccc(F)c(C(F)(F)F)c1 [Intermediate 75, (6S)-5-(-[(4-Fluoro-3-(trifluoromethyl)phenyl)-)]-6-methyl-3,6-dihydro-2H-1,3,4-oxadiazin-2-one] | 22 | 6.15 | 6.62 | 45 |  |  |
| Cc1cc(C2=NNC(=O)OC2)ccc1Cl [Intermediate 76, 5-(4-Chloro-3-methylphenyl)-3,6-dihydro-2H-1,3,4-oxadiazin-2-one] | 40 | 6.89 | 6.43 | 75 |  |  |
| O=C1NN=C(c2ccc(Br)c(C(F)F)c2)CO1 [Intermediate 77, 5-[4-Bromo-3-(difluoromethyl)phenyl]-3,6-dihydro-2H-1,3,4-oxadiazin-2-one] | 40 | 6.48 | 6.82 | 65 |  |  |
| O=C1NN=C(c2ccc(Br)c(C(F)(F)F)c2)CO1 [Intermediate 78, 5-[4-bromo-3-(trifluoromethyl)phenyl]-3,6-dihydro-2H-1,3,4-oxadiazin-2-one] | 8 | 6.74 | 6.85 | 20 |  |  |
